Laboratory results from US20080020932A1, “Method for Combating Weeds” (Bayer Cropscience AG, priority 2004, published 2008).

Test system: Apera spica-venti
Assay: Postemergence field trials in winter wheat: herbicidal activity
Type: in vivo
Details: field trials carried out
Protocol: The compound of the formula (I) was tested under field conditions in Winter wheat in Germany and Poland against the economically significant weed Apera spica-venti. The plot trials were instituted on cultivated land used agriculturally, and the conditions of cultivation and climate can be regarded as being representative over the period under investigation. Areas with a particularly high weed population were selected preferentially.
The active ingredient was applied postemergence (spring) across the area by spraying with a medium droplet size. An appropriate preparation of active ingredient was produced by formulating the active ingredient as a 10 WP (10% w/w water-dispersible powder), mixed with the safener mefenpyr-diethyl as a 15 WG (15% w/w water-dispersible granules) and with alkyl ether sulfates as an additive, and applied with customary amounts of water.
For the assessment of crop tolerance, instances of plant growth inhibition or lightening of the leaf area were rated in % damage in comparison to the development of the untreated control, 1 to 7 weeks after treatment. The herbicidal activity was assessed at a number of times after treatment, based on the development of weeds, as a % reduction in comparison to the untreated control. For these purposes: • 0%=no damage to crop or no herbicidal action; • 100%=total destruction of the crop or of the weeds, respectively.

COC(=O)c1csc(C)c1S(=O)(=O)NC(=O)n1nc(OC)n(C)c1=O [compound of the formula (I), 5-methoxy-4-methyl-2-[(4-methoxycarbonyl-2-methylthien-3-yl)sulfonylaminocarbonyl]-2,4-dihydro-3H-1,2,4-triazol-3-one]
control of the annual varieties of Apera spica-venti in cereals (in words): particularly effective
